In US8359784B2, “Method for controlling subterranean termite activity by forming a barrier” (FMC Corporation, priority 2009, dated 2013):

Tested on: Formosean subterranean termites (Coptotermes formosanus)
Test: Subterranean termite activity on treated wooden frame structures (sheds), field test
Type: in vivo
Description: Twelve wooden frame structures (4 ft by 3 ft by 4 ft high, four to receive treatment with a bifenthrin solution, four to receive a commercial borate standard treatment and four to be used as untreated controls) were built on one inch thick concrete pads in an area of high subterranean termite pressure, Formosean subterranean termites (Coptotermes formosanus). The structures were constructed using pressure treated sill plates, untreated southern yellow pine studs and untreated plywood walls. A two inch diameter polyethylene pipe was installed in a hole in the center of each concrete pad to simulate a plumbing drain installation, leaving a small gap between the pad and the pipe. A piece of wood was inserted in the gap to encourage local termite pressure. […] Termite activity surrounding each structure was monitored by installing commercially available in-ground termite monitors (FIRSTLINE® Defender kits available from FMC Corporation) about one foot from each outside face, a total of four monitors per structure. […] Termite activity was measured in each structure by visually inspecting the inside and outside walls and the area around the polyethylene pipe for termite damage and for construction of shelter tubes at for up to 18 months after treatment. […]

## Cc1c(COC(=O)[C@@H]2[C@H](/C=C(\Cl)C(F)(F)F)C2(C)C)cccc1-c1ccccc1 (racemic) [Bifenthrin, 2-methylbiphenyl-3-ylmethyl (Z)-(1RS)-cis-3-(2-chloro-3,3,3-trifluoroprop-1-enyl)-2,2-dimethyl cyclopropanecarboxylate]
Up to 18 months after treatment
  Termite damage or damage to the wood piece inserted in the simulated plumbing drain hole: None of the bifenthrin treated structures had any indication of termite damage or damage to the wood piece
Visual inspection up to 18 months after treatment
  Damage to structures due to termite activity: very little or no damage due to termite activity
